# Source: PubChem BioAssay AID1033 (Sanford-Burnham Center for Chemical Genomics, 2008)
# Calls of active or inactive are those of the source. No rule for the calls is given here.
# Biological target: Chaperone protein DnaK (Escherichia coli (strain K12)) (UniProt P0A6Y8)
# Test: E. coli DnaK SBD ligand binding – biophysical, NMR, chaperone (AID 1033)
# Details: Purified DnaK SBD
# Chain of Chaperone protein DnaK (Escherichia coli (strain K12)) (P0A6Y8 whole entry, looked up): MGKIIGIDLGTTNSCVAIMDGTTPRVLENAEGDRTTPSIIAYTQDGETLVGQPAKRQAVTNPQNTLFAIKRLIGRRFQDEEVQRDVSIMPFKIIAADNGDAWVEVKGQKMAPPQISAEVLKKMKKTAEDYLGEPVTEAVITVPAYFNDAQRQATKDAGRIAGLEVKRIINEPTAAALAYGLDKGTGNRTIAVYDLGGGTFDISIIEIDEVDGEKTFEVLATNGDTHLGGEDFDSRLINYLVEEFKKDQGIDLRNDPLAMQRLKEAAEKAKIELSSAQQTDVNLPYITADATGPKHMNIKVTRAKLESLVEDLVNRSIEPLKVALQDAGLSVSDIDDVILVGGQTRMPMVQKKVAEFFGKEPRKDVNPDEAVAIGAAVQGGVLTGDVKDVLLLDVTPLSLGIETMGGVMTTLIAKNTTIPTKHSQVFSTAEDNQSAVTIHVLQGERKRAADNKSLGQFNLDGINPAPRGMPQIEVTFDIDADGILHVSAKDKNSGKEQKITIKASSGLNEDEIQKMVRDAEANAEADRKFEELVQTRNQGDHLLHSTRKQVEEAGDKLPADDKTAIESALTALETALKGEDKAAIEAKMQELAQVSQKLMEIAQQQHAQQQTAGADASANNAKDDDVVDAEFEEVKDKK
row,SMILES,Kd
1,CC(CO)NC(=O)C1C=C2c3cccc4[nH]cc(c34)C[C@H]2N(C)C1 (some centres not stated),> 4 mM (inactive)
2,NCc1cccc2nsnc12,> 4 mM (inactive)
3,CC(=O)c1c(C)nc(C)nc1NC(=O)C(C)C,> 4 mM (inactive)
4,c1ccc(SCc2nc(-c3ccccn3)no2)cc1,> 4 mM (inactive)
5,COc1cc([C@@H]2c3cc4c(cc3C(OC3O[C@@H]5COC(C)O[C@H]5[C@H](O)[C@H]3O)C3COC(=O)[C@@H]32)OCO4)cc(OC)c1O (some centres not stated),> 4 mM (inactive)
6,S=C(NC1CC1)NN1CCOCC1,> 4 mM (inactive)
7,Cc1cc(C(=O)NN2CCOCC2)c(C)o1,> 4 mM (inactive)
8,O=c1cc(O)nc(SCc2ccccc2)[nH]1,> 4 mM (inactive)
9,Cc1cc(NS(=O)(=O)Cc2ccccc2)no1,> 4 mM (inactive)
10,CC(=O)NC1C(=O)Nc2c(C)cc(C)cc21 (configuration not stated),> 4 mM (inactive)
11,O=C1C2CCCCC2C(=O)N1c1nccs1 (configuration not stated),> 4 mM (inactive)
12,CS(C)=C1C(=O)NC(=O)N(Cc2ccc(F)cc2)C1=O,> 4 mM (inactive)
13,O=C1NC(=O)C2C3C=CC(O3)C12 (configuration not stated),> 4 mM (inactive)
14,C/C=C/COc1nc2c(c(=O)n(C)c(=O)n2C)n1C,> 4 mM (inactive)
15,O=C1C2C3C=CC(C3)C2C(=O)N1CCO (configuration not stated),> 4 mM (inactive)
16,CNc1nc(SC)nc(N2CCOCC2)n1,> 4 mM (inactive)
17,CCOc1ccc2ccccc2c1C(=O)N1CCOCC1,> 4 mM (inactive)
18,COc1cc2c(cc1O)CCNC2C (configuration not stated),> 4 mM (inactive)
19,CCc1c(C)n([O-])c2c([n+]1=O)CCC2,> 4 mM (inactive)
20,CC(C)c1c(O)ccc2c1CCC1[C@@](C)(C=O)CCC[C@]21C (some centres not stated),> 4 mM (inactive)
21,COc1cc(N)ccc1NC(=O)c1cccs1,> 4 mM (inactive)
22,C[n+]1ccc(C(=O)[O-])cc1,> 4 mM (inactive)
23,C[C@@H]1C(=O)O[C@H]2[C@H]1CC[C@@]1(C)C=CC(=O)[C@@]3(C)O[C@@]213,> 4 mM (inactive)
24,O=c1c(O)c(-c2ccccc2)oc2ccc3occc3c12,> 4 mM (inactive)

row,SMILES,Kd
1,COc1ccc(S(=O)(=O)N2CCC(C(N)=O)CC2)cc1,> 4 mM (inactive)
2,NCCc1cnc[nH]1,> 4 mM (inactive)
3,CN(C(=O)c1cc2cccnc2n(C)c1=O)c1ccccc1,> 4 mM (inactive)
4,O=C1C2=C(SCCS2)C(=O)N1CCCO,> 4 mM (inactive)
5,CC(NC(=O)c1ccco1)c1ccc2c(c1)OCCO2 (configuration not stated),> 4 mM (inactive)
6,O=C(CSc1ncn[nH]1)c1ccccc1,> 4 mM (inactive)
7,NC1CN2CCC1CC2 (configuration not stated),> 4 mM (inactive)
8,CC(=O)Nc1cc(C(F)(F)F)ccc1N1CCOCC1,> 4 mM (inactive)
9,COC(=O)C[C@H]1C2(C)CC34OC5(C)O[C@@]6([C@H](OC)C(OC(=O)C(C)C)[C@]7(C)C(/C(=C(/OC)C(C)C)C(=O)O[C@H]7c7ccoc7)[C@@]6(O5)[C@H](OC)[C@@]3(OC)C2OC(C)=O)[C@]14C (some centres not stated),> 4 mM (inactive)
10,Nc1nc2ccc(S(N)(=O)=O)cc2s1,> 4 mM (inactive)
11,O=C(Nc1cccnc1)c1ccc(Br)s1,> 4 mM (inactive)
12,O=C(Oc1ccc(-c2nnco2)cc1)N1CCOCC1,> 4 mM (inactive)
13,Fc1ccc(N2CCNCC2)cc1,> 4 mM (inactive)
14,CCOC(=O)c1snnc1-c1ccccc1,> 4 mM (inactive)
15,O=C1CNc2cc(C(=O)O)ccc2N1,> 4 mM (inactive)
16,Cn1c(=O)c2c(ncn2CCNC2=NCCC2)n(C)c1=O,> 4 mM (inactive)
17,CC(=O)NC(=S)Nc1nc2ccccc2n1C(C)=O,> 4 mM (inactive)
18,NC(=O)C1CCN(CN2C(=O)c3ccccc3C2=O)CC1,> 4 mM (inactive)
19,O=C1CNC(=O)N1Cc1ccc(Br)cc1,> 4 mM (inactive)
20,Nc1cccc(-n2cccc2)c1,> 4 mM (inactive)
21,COc1ccc2nc(N)sc2c1,> 4 mM (inactive)
22,Cc1ccc(-c2nc(N)n(C(=O)c3cccnc3)n2)cc1,> 4 mM (inactive)
23,O=c1[nH]cc(CN2CCOCC2)c(=O)[nH]1,> 4 mM (inactive)
24,O=C(NCC1CCNCC1)c1ccccn1,> 4 mM (inactive)

row,SMILES,Kd
1,Nc1nc(SCc2ccc3c(c2)OCCO3)n[nH]1,> 4 mM (inactive)
2,COc1cccc(NC(=O)c2ncn[nH]2)c1,> 4 mM (inactive)
3,NC(=O)CC1NC(=O)c2ccccc21 (configuration not stated),> 4 mM (inactive)
4,COc1cccc(/C=C/C(=O)O)c1C(C)C,> 4 mM (inactive)
5,O=C(O)CCS(=O)(=O)c1ccccc1,> 4 mM (inactive)
6,O=C(Oc1ccc(-c2nnco2)cc1)N1CCCCC1,> 4 mM (inactive)
7,C(=C\c1ccccc1)/C=N/n1cnnc1,> 4 mM (inactive)
8,COCc1cc(C)nc2sc(C(=O)OC)c(N)c12,> 4 mM (inactive)
9,CCn1c(C)c(C(C)=O)c(N2CCN(C)CC2)nc1=S,> 4 mM (inactive)
10,CC(=O)Nn1cc2c(=O)n(C)c(=O)n(C)c2c1,> 4 mM (inactive)
11,CS(=O)(=O)Nc1ccccc1C(=O)c1ccccc1,> 4 mM (inactive)
12,OCC(O)Cc1ccc2c(c1)OCO2 (configuration not stated),> 4 mM (inactive)
13,NC1C2CC3CC1CC(O)(C3)C2 (configuration not stated),> 4 mM (inactive)
14,CC(=O)C1CC[C@H]2C3CC[C@H]4C[C@H](O)CC[C@]4(C)C3CC[C@]12C (some centres not stated),> 4 mM (inactive)
15,NC[C@H]1O[C@H](O[C@H]2[C@H](O)[C@@H](O[C@H]3O[C@H](CO)[C@@H](O)[C@H](N)[C@H]3O)[C@H](N)C[C@@H]2N)[C@H](N)[C@@H](O)[C@@H]1O,> 4 mM (inactive)
16,O=C1CCC(C(=O)NCc2ccc(Cl)cc2)N1 (configuration not stated),> 4 mM (inactive)
17,c1ccc2c(c1)ncn2CCn1cnc2ccccc21,> 4 mM (inactive)
18,NC(=O)C(=O)Nc1nc(-c2ccccc2)cs1,> 4 mM (inactive)
19,Nc1ccc(Cl)nn1,> 4 mM (inactive)
20,O=C(O)c1cnc2sc3ccccc3n2c1=O,> 4 mM (inactive)
21,Cc1ccccc1NC(=O)N1CCOCC1,> 4 mM (inactive)
22,O=C1CCC([N+](=O)[O-])C(c2ccccc2F)N1 (configuration not stated),> 4 mM (inactive)
23,Nc1ncnc(Nc2ccccc2C(F)(F)F)n1,> 4 mM (inactive)
24,Nc1[nH]c(=S)ncc1S(=O)(=O)c1ccccc1,> 4 mM (inactive)

row,SMILES,Kd
1,COc1cc2c(cc1OC)[C@@H]1C(=O)c3ccc4c(c3O[C@@H]1CO2)C=CC(C)(C)O4,> 4 mM (inactive)
2,COc1cc(O)c(C)c(O)c1,> 4 mM (inactive)
3,C[n+]1ccn(C/C(N)=N/O)c1,> 4 mM (inactive)
4,COc1cc2c(cc1OC)C(=O)OC2,> 4 mM (inactive)
5,CN1C2C[C@H](OC(=O)[C@H](CO)c3ccccc3)C[C@H]1[C@@H](O)C2,> 4 mM (inactive)
6,Cc1n[nH]c(C)c1CN,> 4 mM (inactive)
7,C[C@@H](N)[C@@H](O)c1ccccc1,> 4 mM (inactive)
8,CN(C)C(=O)Nc1ccc(F)cc1F,> 4 mM (inactive)
9,COc1cc2c(cc1OC)Cc1cc(OC)c(OC)cc1Cc1cc(OC)c(OC)cc1C2,> 4 mM (inactive)
10,Cc1cc(=O)n(C(N)=S)[nH]1,> 4 mM (inactive)
11,CC(=O)NC12CC3CC(C)(C1)CC(NC(C)=O)(C3)C2,> 4 mM (inactive)
12,CC(C)(C)c1cc(CN)c(C(=O)O)o1,> 4 mM (inactive)
13,CC(C)=CCc1c(O)cc2oc(C)cc(=O)c2c1O,> 4 mM (inactive)
14,Nc1ccc(N2CCCCC2)cc1,> 4 mM (inactive)
15,CC(=O)c1cccc(NC(=O)N2CCc3ccccc3C2)c1,> 4 mM (inactive)
16,O=C(NCc1cccc2ccccc12)c1cccs1,< 0.2 mM
17,Cn1c(NCc2ccccc2O)nc2ccccc21,> 4 mM (inactive)
18,Cc1cc(Cl)ccc1NC(=O)C(N)=O,> 4 mM (inactive)
19,Cn1[nH]c2nc3[nH]n(C)c(=O)c3c(-c3ccccc3)c2c1=O,> 4 mM (inactive)
20,OCc1snnc1-c1ccccc1,> 4 mM (inactive)
21,CC(C)(C)NC(=O)CN1C(=O)c2ccccc2S1(=O)=O,> 4 mM (inactive)
22,O=C(O[C@@H]1Cc2c(O)cc(O)cc2O[C@@H]1c1ccc(O)c(O)c1)c1cc(O)c(O)c(O)c1,> 4 mM (inactive)
23,C[C@H](CCC(=O)O)[C@H]1CCC2C3C(CC[C@@]21C)[C@@]1(C)CC[C@@H](O)C[C@H]1C[C@@H]3O (some centres not stated),> 4 mM (inactive)
24,CC(=O)c1cccc(NC2=NCC(C)(C)S2)c1,> 4 mM (inactive)

row,SMILES,Kd
1,COC(=O)c1ccc(C(=S)N2CCOCC2)cc1,> 4 mM (inactive)
2,O=C(O)CSc1cccc2cccnc12,> 4 mM (inactive)
3,CC(=O)Nc1ccc(S(=O)(=O)NCC2CCCO2)cc1 (configuration not stated),> 4 mM (inactive)
4,O=C1CSC(=Nc2ccc(C(=O)O)cc2)N1,> 4 mM (inactive)
5,NC(=O)c1ccc(-c2csnn2)cc1,> 4 mM (inactive)
6,Cc1noc(C)c1C(=O)NCc1ccco1,> 4 mM (inactive)
7,O=C(O)CCCNC(=O)c1ccccc1C(=O)O,> 4 mM (inactive)
8,C[C@@H]1O[C@@H](O[C@H]2[C@H](Oc3cc(O)c4c(=O)cc(-c5ccc(O)cc5)oc4c3)O[C@H](CO)[C@@H](O)[C@@H]2O)[C@H](O)[C@H](O)[C@H]1O,> 4 mM (inactive)
9,O=C(Cc1c(F)cccc1Cl)Nc1ccncc1,> 4 mM (inactive)
10,Nc1cc(N)nc(SCc2ccccc2)n1,> 4 mM (inactive)
11,Nc1ccc2nsnc2c1,> 4 mM (inactive)
12,COc1cccc(C(=O)N2CCOCC2)c1,> 4 mM (inactive)
13,Cc1ccc(-c2c(C)n([O-])c3c([n+]2=O)CCCC3)o1,> 4 mM (inactive)
14,Cc1cccc(NS(=O)(=O)c2cccs2)n1,> 4 mM (inactive)
15,COc1ccc2ccc(=O)oc2c1CC=C(C)C,> 4 mM (inactive)
16,COc1ccc(C2(C)NC(=O)NC2=O)cc1 (configuration not stated),> 4 mM (inactive)
17,O=C1C=CC(=O)N1c1ccccc1O,> 4 mM (inactive)
18,CC1CCN(S(=O)(=O)N(C)C)CC1,> 4 mM (inactive)
19,O=c1[nH]c(CN2CCN(CCO)CC2)nc2ccccc12,> 4 mM (inactive)
20,CSc1nnc2ccc(-c3cccnc3)nn12,> 4 mM (inactive)
21,Cc1c(/C=N/O)cnn1C,> 4 mM (inactive)
